Test results published in US8877234B2, “Preservatives” (Clariant Finance (BVI) Limited, priority 2005, dated 2014).

Key:
[1] = cited from earlier work
[2] = O/W emulsions and W/O emulsions; 0.5% by weight; cited from earlier work
[3] = test system: Aspergillus niger; test: Minimum inhibitory concentration (MIC), agar dilution method, DIN 58940; assay type: cell-based
Description: (§1) The MIC values were determined in accordance with DIN 58940 by the agar dilution method.

[4] = test system: Pseudomonas aeruginosa; test: as above; assay type: cell-based
Description: as §1

[5] = test system: Candida albicans; test: as above; assay type: cell-based
Description: as §1

[6] = test system: Staphyloccus aureus; test: as above; assay type: cell-based
Description: as §1

SMILES	solubility in oil [1]	solubility in water [1]	antimicrobial activity [2]	MIC in % [3]	MIC in % [4]	MIC in % [5]	MIC in % [6]
Cc1cc(CC(C)CC(C)(C)C)n(O)c(=O)c1.NCCO (centres unmarked) [Octopirox ®, 2-aminoethanol salt of 1-hydroxy-4-methyl-6-(2,4,4-trimethylpentyl)-2(1H)-pyridone]	no more than moderate solubility	low solubility	inadequate	0.004%	0.016%	0.004%	0.002%
OCCOc1ccccc1 [PE, 2-phenoxyethanol]				0.25%	0.5%	0.5%	0.25%
